Tested on: NCI-H226 complex tumor spheroids, viability
Assay: Anticancer human tumor NCI-H226 cell line growth inhibition;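 further: spheroids exposed to compound for 7 days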;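 on viability, T/C: 100% = DMSO vehicle control viability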
Conditions: for IC50: curve of first compound; for viability, T/C: stronger effect = lower value
Procedure, shortened: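 Complex tumor spheroids combined malignant cells with endothelial cells and mesenchymal stem cells. DNA-damaging drugs and DNA repair inhibitors were tested alone and in combination, at half-log dilutions down from clinical Cmax (top 10 microM if Cmax unknown), 0.25% DMSO final.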

[1] = second compound 30 pM, first compound 0.00949 µM
[2] = second compound 30 pM, first compound 0.03 µM
[3] = second compound 30 pM, first compound 0.0949 µM
[4] = second compound 30 pM, first compound 0.3 µM
[5] = second compound 30 pM, first compound 0.949 µM
[6] = second compound 30 pM, first compound 3 µM
[7] = second compound 94.9 pM, first compound 0.00949 µM
[8] = second compound 94.9 pM, first compound 0.03 µM
[9] = second compound 94.9 pM, first compound 0.0949 µM
[10] = second compound 94.9 pM, first compound 0.3 µM
[11] = second compound 94.9 pM, first compound 0.949 µM
[12] = second compound 94.9 pM, first compound 3 µM
[13] = second compound 0.0003 µM, first compound 0.00949 µM
[14] = second compound 0.0003 µM, first compound 0.03 µM
[15] = second compound 0.0003 µM, first compound 0.0949 µM
[16] = second compound 0.0003 µM, first compound 0.3 µM
[17] = second compound 0.0003 µM, first compound 0.949 µM
[18] = second compound 0.0003 µM, first compound 3 µM
[19] = second compound 0.000949 µM, first compound 0.00949 µM
[20] = second compound 0.000949 µM, first compound 0.03 µM
[21] = second compound 0.000949 µM, first compound 0.0949 µM
[22] = second compound 0.000949 µM, first compound 0.3 µM
[23] = second compound 0.000949 µM, first compound 0.949 µM
[24] = second compound 0.000949 µM, first compound 3 µM
[25] = second compound 0.003 µM, first compound 0.00949 µM
[26] = second compound 0.003 µM, first compound 0.03 µM
[27] = second compound 0.003 µM, first compound 0.0949 µM
[28] = second compound 0.003 µM, first compound 0.3 µM
[29] = second compound 0.003 µM, first compound 0.949 µM
[30] = second compound 0.003 µM, first compound 3 µM

For Cn1ncnc1[C@H]1c2n[nH]c(=O)c3cc(F)cc(c23)N[C@@H]1c1ccc(F)cc1 + COc1cc2c(cc1O)CCNC21CSC2c3c(OC(C)=O)c(C)c4c(c3C(COC1=O)N1C(O)C3Cc5cc(C)c(OC)c(O)c5C(C21)N3C)OCO4, the IC50 (second compound 30 pM) was greater than 3 µM, the IC50 (second compound 94.9 pM) was greater than 3 µM and the IC50 (second compound 0.0003 µM) was greater than 3 µM. The IC50 (second compound 0.000949 µM) was greater than 3 µM, the IC50 (second compound 0.003 µM) was 0.157 µM and the viability, T/C [1] was 90%. The viability, T/C [2] was 103%, the viability, T/C [3] was 106% and the viability, T/C [4] was 92.8%. It also gave a viability, T/C [5] of 91.3%, a viability, T/C [6] of 111% and a viability, T/C [7] of 103%. For the same compound, the viability, T/C [8] was 101%, the viability, T/C [9] was 104% and the viability, T/C [10] was 102%. The viability, T/C [11] was 101%, the viability, T/C [12] was 110% and the viability, T/C [13] was 122%. The viability, T/C [14] was 100%, the viability, T/C [15] was 113% and the viability, T/C [16] was 119%. It also gave a viability, T/C [17] of 119%, a viability, T/C [18] of 113% and a viability, T/C [19] of 79.2%. It also gave a viability, T/C [20] of 76.2%, a viability, T/C [21] of 71.1% and a viability, T/C [22] of 93.3%. It also gave a viability, T/C [23] of 87.1%, a viability, T/C [24] of 76.2% and a viability, T/C [25] of 53.1%. It also gave a viability, T/C [26] of 70.3%, a viability, T/C [27] of 85.7% and a viability, T/C [28] of 24.9%. The viability, T/C [29] was 20.6% and the viability, T/C [30] was 0.42%.
Work on [2H]c1nc(C)nc([2H])c1-c1cc(NC[C@@H](C)c2cccc3c(C(=O)NC)ccnc23)ncn1 + CC[C@@]1(O)C(=O)OCc2c1cc1n(c2=O)Cc2cc3c(CN(C)C)c(O)ccc3nc2-1 yielded an IC50 (second compound 0.003 µM) greater than 10 µM, an IC50 (second compound 0.00949 µM) greater than 10 µM and an IC50 (second compound 0.03 µM) greater than 10 µM. For the same compound, the IC50 (second compound 0.0949 µM) was greater than 10 µM, the IC50 (second compound 0.3 µM) was greater than 10 µM and the viability, T/C (second compound 0.003 µM, first compound 0.0316 µM) was 89.6%. The viability, T/C (second compound 0.003 µM, first compound 0.1 µM) was 93.2%, the viability, T/C (second compound 0.003 µM, first compound 0.316 µM) was 92.6% and the viability, T/C (second compound 0.003 µM, first compound 1 µM) was 82%. The viability, T/C (second compound 0.003 µM, first compound 3.16 µM) was 79.5%, the viability, T/C (second compound 0.003 µM, first compound 10 µM) was 88.1% and the viability, T/C (second compound 0.00949 µM, first compound 0.0316 µM) was 86.8%. For the same compound, the viability, T/C (second compound 0.00949 µM, first compound 0.1 µM) was 88.3%, the viability, T/C (second compound 0.00949 µM, first compound 0.316 µM) was 93% and the viability, T/C (second compound 0.00949 µM, first compound 1 µM) was 86.7%. It also gave a viability, T/C (second compound 0.00949 µM, first compound 3.16 µM) of 84.3%, a viability, T/C (second compound 0.00949 µM, first compound 10 µM) of 88.5% and a viability, T/C (second compound 0.03 µM, first compound 0.0316 µM) of 79%. It also gave a viability, T/C (second compound 0.03 µM, first compound 0.1 µM) of 82%, a viability, T/C (second compound 0.03 µM, first compound 0.316 µM) of 84.3% and a viability, T/C (second compound 0.03 µM, first compound 1 µM) of 79%. It also gave a viability, T/C (second compound 0.03 µM, first compound 3.16 µM) of 81.5%, a viability, T/C (second compound 0.03 µM, first compound 10 µM) of 73% and a viability, T/C (second compound 0.0949 µM, first compound 0.0316 µM) of 88.8%. The viability, T/C (second compound 0.0949 µM, first compound 0.1 µM) was 89%, the viability, T/C (second compound 0.0949 µM, first compound 0.316 µM) was 85.1% and the viability, T/C (second compound 0.0949 µM, first compound 1 µM) was 83%. The viability, T/C (second compound 0.0949 µM, first compound 3.16 µM) was 80.5%, the viability, T/C (second compound 0.0949 µM, first compound 10 µM) was 86.5% and the viability, T/C (second compound 0.3 µM, first compound 0.0316 µM) was 59.8%. It also gave a viability, T/C (second compound 0.3 µM, first compound 0.1 µM) of 70.4%, a viability, T/C (second compound 0.3 µM, first compound 0.316 µM) of 65.5% and a viability, T/C (second compound 0.3 µM, first compound 1 µM) of 71.9%. The viability, T/C (second compound 0.3 µM, first compound 3.16 µM) was 59.5% and the viability, T/C (second compound 0.3 µM, first compound 10 µM) was 60.7%.
With Cc1sc2c(c1C)C(c1ccc(Cl)cc1)=NC(CC(=O)Nc1ccc(O)cc1)c1nnc(C)n1-2 (stereo not given) + COc1cc2c(cc1O)CCNC21CSC2c3c(OC(C)=O)c(C)c4c(c3C(COC1=O)N1C(O)C3Cc5cc(C)c(OC)c(O)c5C(C21)N3C)OCO4 the IC50 (second compound 30 pM) was greater than 3 µM, the IC50 (second compound 94.9 pM) was greater than 3 µM and the IC50 (second compound 0.0003 µM) was greater than 3 µM. It also gave an IC50 (second compound 0.000949 µM) of 0.257 µM, an IC50 (second compound 0.003 µM) of less than 0.00949 µM and a viability, T/C [1] of 97%. It also gave a viability, T/C [2] of 93.1%, a viability, T/C [3] of 84% and a viability, T/C [4] of 84.9%. For the same compound, the viability, T/C [5] was 68%, the viability, T/C [6] was 64.8% and the viability, T/C [7] was 105%. The viability, T/C [8] was 91.8%, the viability, T/C [9] was 87.1% and the viability, T/C [10] was 77.6%. For the same compound, the viability, T/C [11] was 73.9%, the viability, T/C [12] was 66% and the viability, T/C [13] was 101%. It also gave a viability, T/C [14] of 84.7%, a viability, T/C [15] of 75.2% and a viability, T/C [16] of 75.9%. For the same compound, the viability, T/C [17] was 72.6%, the viability, T/C [18] was 48.7% and the viability, T/C [19] was 138%. It also gave a viability, T/C [20] of 78.6%, a viability, T/C [21] of 68.2% and a viability, T/C [22] of 67.1%. It also gave a viability, T/C [23] of 19.7%, a viability, T/C [24] of 7.53% and a viability, T/C [25] of 2.09%. For the same compound, the viability, T/C [26] was 0.99%, the viability, T/C [27] was 0.74% and the viability, T/C [28] was 0.28%. For the same compound, the viability, T/C [29] was 0.28% and the viability, T/C [30] was 0.51%.
Compound CNCc1ccc(-c2cc(-c3nc(-c4ccc(S(=O)(=O)C(C)C)cc4)cnc3N)on2)cc1 + CC[C@@]1(O)C(=O)OCc2c1cc1n(c2=O)Cc2cc3c(CN(C)C)c(O)ccc3nc2-1 has an IC50 (second compound 0.003 µM) of 1.71 µM, an IC50 (second compound 0.00949 µM) of 1.56 µM and an IC50 (second compound 0.03 µM) of 1.7 µM. The IC50 (second compound 0.0949 µM) was 1.67 µM, the IC50 (second compound 0.3 µM) was 1.31 µM and the viability, T/C [25] was 111%. The viability, T/C [26] was 116%, the viability, T/C [27] was 125% and the viability, T/C [28] was 130%. It also gave a viability, T/C [29] of 89.8%, a viability, T/C [30] of 12.1% and a viability, T/C (second compound 0.00949 µM, first compound 0.00949 µM) of 99.1%. The viability, T/C (second compound 0.00949 µM, first compound 0.03 µM) was 112%, the viability, T/C (second compound 0.00949 µM, first compound 0.0949 µM) was 108% and the viability, T/C (second compound 0.00949 µM, first compound 0.3 µM) was 107%. It also gave a viability, T/C (second compound 0.00949 µM, first compound 0.949 µM) of 87%, a viability, T/C (second compound 0.00949 µM, first compound 3 µM) of 1.35% and a viability, T/C (second compound 0.03 µM, first compound 0.00949 µM) of 90.5%. It also gave a viability, T/C (second compound 0.03 µM, first compound 0.03 µM) of 109%, a viability, T/C (second compound 0.03 µM, first compound 0.0949 µM) of 115% and a viability, T/C (second compound 0.03 µM, first compound 0.3 µM) of 123%. The viability, T/C (second compound 0.03 µM, first compound 0.949 µM) was 97.4%, the viability, T/C (second compound 0.03 µM, first compound 3 µM) was 3.86% and the viability, T/C (second compound 0.0949 µM, first compound 0.00949 µM) was 90.7%. For the same compound, the viability, T/C (second compound 0.0949 µM, first compound 0.03 µM) was 105%, the viability, T/C (second compound 0.0949 µM, first compound 0.0949 µM) was 104% and the viability, T/C (second compound 0.0949 µM, first compound 0.3 µM) was 110%. The viability, T/C (second compound 0.0949 µM, first compound 0.949 µM) was 96.7%, the viability, T/C (second compound 0.0949 µM, first compound 3 µM) was 1.91% and the viability, T/C (second compound 0.3 µM, first compound 0.00949 µM) was 70.1%. It also gave a viability, T/C (second compound 0.3 µM, first compound 0.03 µM) of 76.7%, a viability, T/C (second compound 0.3 µM, first compound 0.0949 µM) of 92.8% and a viability, T/C (second compound 0.3 µM, first compound 0.3 µM) of 101%. For the same compound, the viability, T/C (second compound 0.3 µM, first compound 0.949 µM) was 69.5% and the viability, T/C (second compound 0.3 µM, first compound 3 µM) was 0.93%.
